Measurements as given in US12605404B2, “Synthetic cellular membrane chemical ionophore delivery system comprising hexa-aqua ligand compositions” (priority 2021, dated 2026).

Tested on: Staphylococcus aureus (MRSA)
Assay: Broth Microdilution (CLSI-BMD), non-biofilm, 10 MRSA isolates
Assay type: cell-based
From the text: A non-biofilm antimicrobial assay using the broth microdilution-based sensitivity method was completed at the University of Debrecen, Hungary. […] A percentage solution calculation established that twice the amount of vancomycin was needed to create the same 50% turbidity reduction in MRSA when tested in comparison to ZC-1.

CN[C@H](CC(C)C)C(=O)N[C@H]1C(=O)N[C@@H](CC(N)=O)C(=O)N[C@H]2C(=O)N[C@H]3C(=O)N[C@H](C(=O)N[C@H](C(=O)O)c4cc(O)cc(O)c4-c4cc3ccc4O)[C@H](O)c3ccc(c(Cl)c3)Oc3cc2cc(c3O[C@@H]2O[C@H](CO)[C@@H](O)[C@H](O)[C@H]2O[C@H]2C[C@](C)(N)[C@H](O)[C@H](C)O2)Oc2ccc(cc2Cl)[C@H]1O [Vancomycin]
MIC values, range (control, 10 MRSA isolates): 4 to 16 µg/mL
amount needed for the same 50% turbidity reduction in MRSA, in comparison to ZC-1 (percentage solution calculation): twice
